Experiments:
[1] = Stability of Budesonide solution formulations: recovery of budesonide after storage; assay type: physicochemical
Procedure: Cans of Budesonide in solution according to the following formulation were manufactured: […]
Budesonide 400 mg (200 mcg/shot)
Anodized and lacquered cans and non ethanol extracted valves were utilized. The cans were put on stability at 50° C. (inverted)
Cans with the same formulation were prepared and in this case ethanol extracted valves were utilized.

[2] = Stability of Budesonide solution formulations: determination of degradation products (related substances); assay type: physicochemical
Procedure: Two cans of anodized aluminum prepared as per example 2 were submitted to the determination of degradation products of the active ingredient.
It was noticed in this way that after a lag time of 6 months at 40° C. the degradation rate increases with the same pattern seen in the first example. […] An explanation of the process is that peroxides may leach into the solution after a while, thus starting a radicalic degradation of Budesonide.

Degradation observed ([1]; anodized and lacquered cans, non ethanol extracted valves, 50° C. inverted): high degree of degradation
Stability of the solution formulation ([1]; ethanol extracted valves, compared with non extracted valves (Example 1)): much higher stability
Lag time after which the degradation rate increases ([2]; 40° C., anodized aluminum cut edge cans, ethanol extracted valves, inverted, does not occur if stored upright): 6 months
Stability of the solution ([2]; finishing of the cans changed from cut edge to rolled neck): greatly increased
Structure (SMILES): CCCC1O[C@@H]2C[C@H]3[C@@H]4CCC5=CC(=O)C=C[C@]5(C)[C@H]4[C@@H](O)C[C@]3(C)[C@]2(C(=O)CO)O1 (stereo partly shown) [Budesonide]
